In one series the test system is HeLa cells. The experiment in a line: Lipid raft fractionation and Western blot of PS1 C-terminal fragments. The format is cell-based.
In the next series the test system is mouse cortical neurons. As to the kind of experiment: Phosphoinositide / anionic phospholipid levels in cultured cortical neurons (HPLC with suppressed conductivity). Conditions: for effect of Ca2+ chelation on oAβ42-induced PIP2 decrease: oAβ42 for 60 min, EGTA 2 mM; for PIP2 levels after Ca2+ ionophore: 2 μM.
Series [1] concerns CA1 region of the hippocampus. As to the kind of experiment: Long-term potentiation in adult hippocampal slices (CA1, tetanic stimulation of Schaeffer collateral pathway). The arrangement: species or system mouse. The source says: Long-term potentiation (LTP) was induced in the CA1 region of the hippocampus through tetanic stimulation of the Schaeffer collateral pathway.
Another series concerns PC12 cells. The experiment in a line: PIP2 sensor GFP-PHPLCδ1 plasma membrane/cytosol localization. The format is cell-based. Conditions: for GFP-PHPLCδ1 probe localization: oAβ42, 2 μM ionomycin, Aβ42Rev. As for the experimental part:
Confocal microscopy. […] Cells have been analyzed after being treated for different time lengths: 0, 10 minutes, 30 minutes and 120 minutes. Cells were washed in phosphate buffer and fixed with 4 percent paraformaldehyde. Confocal z-stack images (0.5 μm) of PC12 cells were obtained using Nikon EZ-C1.2.30 confocal microscope, (×100) oil immersion objective. Quantification of GFP intensity was calculated using the ImageJ software: for each cell in a given image, a line intensity profile across the cell was obtained. The relative decrease in plasma membrane localization was calculated as the ratio between the plasma membrane fluorescence intensity and the average cytosolic fluorescence intensity. The average of the ratio was reported in the graph.
PC12 cells were cultured in RPMI media supplemented with 1 mM glutamine, 5% FBS, 10% horse serum and penicillin, streptomycin. The day before transfection, PC12 cells were split 50% and plated on poly-D-lysine coated coverslips. Cells were transfected with Lipofectamine 2000 as per the manufacturer's protocol with GFP-PHPLCδ1. After 16-24 hours, cells were treated as indicated for 30 minutes in conditioned media. Cells were then briefly washed in PBS and fixed for 20 minutes in 4% paraformaldehyde. Cells were then washed in 0.1M glycine and twice in PBS for 5 minutes each. Cells were mounted using Vectashield. Images were collected using a con-focal microscope and the plot profile was analyzed with ImageJ 1.37v. The ratio of the fluorescence profiles of the plasma membrane and the cytosol were calculated and deemed to represent translocation of the PIP2 probe GFP-PH-PLCδ1 (72).

Series [2] has as its system PI4KIIα +/− ES-derived neurons. The experiment in a line: Aβ42 generation and PIP synthesis in PI4KIIα +/− ES cell-derived pyramidal neurons. Format: cell-based, mouse. The source says:
Mouse embryonic stem (ES) cell-derived pyramidal neurons that harbor the heterozygote knockout of the PI4KIIα allele (PI4KIIα +/−; purchased from Sanger Institute Gene Trap Resource; http://www.sanger.ac.uk/PostGenomics/genetrap/) were then used to further study the role for PI4KIIα in Aβ42 generation in neurons. Differentiation and morphology of pyramidal neurons from PI4KIIα heterozygote (+/−) ES cells were indistinguishable from those from match wild-type ES cells (representative neuronal staining is shown in FIGS. 14A and B). […] Aβ42 generation was substantially elevated in the neurons derived from PI4KIIα +/−ES cells.

The test system of another series is APP/PS1 mice. As to the kind of experiment: Radial-arm water-maze in APP/PS1 mice. The format is in vivo, mouse. Conditions: i.p., 10 mg/kg, three weeks, 3 month-old APP/PS1 mice. As for the experimental part:
Therefore experiments were performed to determine whether (20S)Rg3 can improve the memory impairments in an AD mouse model. (20S)Rg3 was administered for three weeks (i.p., 10 mg/kg) to 3 month-old APP/PS1 mice and age-matched littermate controls. Mice were then subjected to behavioral testing in the radial-arm water-maze paradigm (74).

A further series addresses T1, PIPK1γ (Homo sapiens, UniProt O60331).
T1 construct: GST
As to the kind of experiment: PIPK1γ activity assay. Conditions: 50 μM. The format is biochemical. The source says:
Thus, (20S)Rg3 serves as an activator of PI4KIIα, resulting in the increase in the steady-state levels of PIP and subsequently the levels of PIP2.

Another series has as its target T2, Aβ42 (Homo sapiens, UniProt P05067).
T2 construct: Synthetic Aβ (1-42) peptide was purchased from American Peptide; purchased American Peptide (Sunnyvale, Calif.); host or cells: synthetic peptide
The experiment in a line: Oligomerization process of Aβ42.

Series [3] concerns PI4KIIα-overexpressing cells. As to the kind of experiment: Aβ42 levels in PI4KIIα-overexpressing cells. Format: cell-based. As for the experimental part:
Since (20S)Rg3 potentiates PI4KIIα activity (conversion from PI to PIP), it was determined whether the increase in PI4KIIα activity exerts similar effects on Aβ42 generation as observed in the (20S)Rg3-treated cells. Overexpression of PI4KIIα leads to increased protein levels of PI4KIIα and increased PI 4-kinase activity as measured by lipid kinase assay. […] Thus, increased levels of the (20S)Rg3 target protein PI4KIIα may amplify the effects of the Aβ42-lowering activity of (20S)Rg3.

A further series deals with T3, PI4KIIα (Homo sapiens, UniProt Q9BTU6).
T3 construct: made in house
T3 sequence (Q9BTU6 whole entry): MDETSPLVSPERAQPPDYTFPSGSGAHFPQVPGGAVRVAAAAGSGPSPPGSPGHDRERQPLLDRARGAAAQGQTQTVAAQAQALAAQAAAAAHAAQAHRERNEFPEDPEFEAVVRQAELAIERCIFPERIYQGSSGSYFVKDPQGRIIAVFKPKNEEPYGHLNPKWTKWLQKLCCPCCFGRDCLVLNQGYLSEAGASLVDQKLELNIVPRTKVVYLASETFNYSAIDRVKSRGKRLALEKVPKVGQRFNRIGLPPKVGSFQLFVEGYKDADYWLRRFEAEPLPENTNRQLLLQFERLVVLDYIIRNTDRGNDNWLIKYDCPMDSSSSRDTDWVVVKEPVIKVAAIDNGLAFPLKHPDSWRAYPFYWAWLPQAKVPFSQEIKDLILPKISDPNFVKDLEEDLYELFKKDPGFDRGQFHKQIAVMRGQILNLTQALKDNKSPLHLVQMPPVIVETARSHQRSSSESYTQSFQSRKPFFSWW
The experiment in a line: PI4KIIα lipid kinase activity assay with TLC analysis. Format: biochemical. As for the experimental part:
Lipid kinase assay and thin layer chromatography. In vitro lipid phosphorylation assays on post-nuclear supernatant of HEK293, Neuro2a or CHO cells expressing either WT or FAD mutant PS1 and PS2, were carried out as previously described (70). Briefly, 100 μg protein from the supernatant were mixed with 2.5 μl ATP (final: 50 μM), 2.5 μl CaCl2 (final: 50 μM), 27.0 μl EGTA-free kinase buffer (25 mM Hepes, 100 mM KC1, 2.5 mM MgCl2) and 0.5 μl gamma ATP (final 100 nCi/μl) and samples incubated at 37° C. for 15 min. Reaction products were extracted and analyzed by thin layer chromatography (TLC) silica plate (solvent: 64—acetone 30—methanol 24—acetic acid 32—water 14 (v/v)) and visualized by autoradiography.
Mammalian expression of a construct encoding either wild-type (IIα) or the kinase-dead mutant (IIα-KD) forms of PI4KIIα (HA-tagged) were transfected into CHO cells. The enzyme was immuno-isolated using anti-HA affinity beads from cell extracts. The purified PI4KIIα proteins were subjected to a lipid kinase activity assay and TLC analysis using PI as a substrate (FIG. 10C). PI4KIIα, but not the kinase-dead mutant, enhanced the incorporation of [γ32P]-ATP into PIP (FIG. 10C,D).

For series [4], the system named is N2a cells stably expressing APP harboring the Swedish mutation. The experiment in a line: Caspase 3 cleavage Western blot. Conditions: 6 hours; concentrations which decreased Aβ42 generation. Format: cell-based. As for the experimental part:
Western blot analysis of full length APP and caspase3 was conducted on 30 μg of lysate collected as described above from N2a cells stably expressing APP harboring the Swedish mutation. Cells were treated for 6 hours with KU-55933 at concentrations indicated. APP was detected using the LN27 antibody from Zymed and caspase 3 full length and cleavage product were probed using the caspase 3 antibody from Cell Signaling Technology.

The conditions of series [5]: previous studies (refs 113, 114); cited from earlier work.
Series [6] concerns N2a cells stably expressing human APP with the Swedish mutation. The experiment in a line: Aβ42/Aβ40 production in N2a cells stably expressing human APP with the Swedish mutation. The format is cell-based. Conditions: 6 hours treatment, read-out: EC50, inhibition of production of Aβ42 as well as Aβ40. As for the experimental part:
N2a cells stably expressing human APP with the Swedish mutation were grown in DMEM-supplemented with 50% Opti-MEM, 10% FBS, penicillin, streptomycin, and G418. Cells were grown to 80-90% confluence and treated for 6 hours with the drugs as indicated in 900 μl media. The conditioned media was harvested and centrifuged for 15 minutes at 14,000 rpm in a table top Eppendorf centrifuge 5417R. The adherent cells were washed two times with ice cold PBS and lysed in 100 μl super IP buffer (10 mM Tris Cl, pH, 7.4, 150 mM NaCl, 2 mM EDTA, 1% Triton X-100, 0.25% NP-40, protease inhibitors). Cell lysates were scraped and incubated for 15 minutes on ice before centrifugation at 14,000 rpm in a table-top Eppendorf centrifuge 5417R. Cleared conditioned media and lysates were stored at −80° C. until use. Aβ 42 and Aβ40 were quantified with the commercially available kit from Biosource as indicated in the protocol. Protein concentration of the cell lysate was determined using the BCA assay from Pierce.
KU-55933 is a small molecule inhibitor of ATM kinase as well as PI3K family members (FIG. 22). […] Aβ 42 and Aβ40 were quantified with the commercially available kit from Biosource as indicated in the protocol. Protein concentration of the cell lysate was determined using the BCA assay from Pierce.

T1 sequence (O60331 whole entry): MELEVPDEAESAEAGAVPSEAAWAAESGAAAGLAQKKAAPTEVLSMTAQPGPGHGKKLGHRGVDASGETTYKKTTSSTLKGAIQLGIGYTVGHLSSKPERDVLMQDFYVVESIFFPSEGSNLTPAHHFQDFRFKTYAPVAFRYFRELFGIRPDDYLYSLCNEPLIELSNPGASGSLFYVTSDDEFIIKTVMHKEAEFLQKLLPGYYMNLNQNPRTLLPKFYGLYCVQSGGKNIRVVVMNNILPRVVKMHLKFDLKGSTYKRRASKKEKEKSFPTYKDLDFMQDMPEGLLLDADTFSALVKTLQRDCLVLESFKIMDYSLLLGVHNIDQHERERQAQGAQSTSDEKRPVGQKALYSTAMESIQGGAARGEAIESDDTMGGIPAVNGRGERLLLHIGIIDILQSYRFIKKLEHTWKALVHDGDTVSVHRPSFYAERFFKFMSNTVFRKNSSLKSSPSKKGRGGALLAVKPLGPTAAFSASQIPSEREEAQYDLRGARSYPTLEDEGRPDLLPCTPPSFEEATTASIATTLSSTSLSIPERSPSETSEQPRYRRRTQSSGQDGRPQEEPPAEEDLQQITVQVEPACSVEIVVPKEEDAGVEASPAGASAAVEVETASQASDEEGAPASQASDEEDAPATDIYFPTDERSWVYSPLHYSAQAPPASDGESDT
T2 sequence (P05067 672-713 limits assumed): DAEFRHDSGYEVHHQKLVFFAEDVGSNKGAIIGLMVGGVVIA
Procedure for mouse cortical neurons: HPLC Lipid Analysis. Cells grown in 15-cm^2 dishes were scraped in 0.75 ml ice-cold MeOH: 1M HCl (1:1) supplemented with 2 mM AlCl3. Lipids were then extracted and deacylated by incubation with 0.5 ml methylamine reagent (MeOH:40% methylamine in water:n-butanol:water 47:36:9:8) at 50° C. for 45 min. The aqueous phase was dried, resuspended in 0.5 ml of n-butanol: petroleum ether:ethyl formate (20:40:1), and extracted twice with an equal volume of water. Aqueous extracts were dried, resuspended in water, and subjected to anion-exchange HPLC on an Tonpac AS11-HC column (Dionex). Negatively charged glycerol head groups were eluted with a 1.5-86 mM KOH gradient and detected online by suppressed conductivity 75 in a Dionex Ion Chromatography system equipped with an ASRS-ultra II self-regenerating suppressor. Individual peaks were identified and peak areas were calculated using the Chromeleon software (Dionex). Using deacylated anionic phospholipids as standards, lipid masses were calculated and expressed as molar fractions of total anionic phospholipids present in the sample (see Ref. 69).
2-week-old, cultured mouse cortical neurons were incubated with three different Aβ42 preparations (monomers, soluble oligomers, and fibrils) at concentrations of 200 nM. The levels of PIP2 were measured by conductance-based HPLC quantitation.
This preparation contains a mixture of monomers, trimers and tetramers as well as traces of dimers and high molecular weight oligomers, as described previously. Potential effects of this preparation were investigated either after an acute (0-120 min) or a subchronic treatment (72 h). The levels of phosphoinositides as well as a variety of other anionic phospholipids were measured and quantified in neuronal extracts using HPLC combined with suppressed conductivity detection (69, 71).
Cell culture. […] Primary cultures from cortical neurons were generated from newborn mice as described (126). Briefly, cortices were dissected out, trypsinized for 45 minutes, and then dissociated with a Pasteur pipette and plated on poly-ornithine coated 10 mm dishes at a density of 25,000 cells/cm^2 in Neurobasal-A medium containing 1 mM kyneurenic acid to reduce enhanced synaptic transmission due to the high density of the cultures.
Lipid measurements. Cultures were scrapped on a methanol:1N HCl 1:1 buffer supplemented with 2 mM AlCl3. Ice-cold chloroform (0.4 ml) was then added, and samples were vortexed for 1 min. The solvent phase was washed with 1 ml. methanol:2 mM oxalic acid (1:0.9 vol/vol) and dried under a flow of nitrogen.

Take `CSc1ccc(/C=C2/C(C)=C(CC(=O)O)c3cc(F)ccc32)cc1` [sulindac sulfide]: the “association of PS1 fragments with lipid rafts” value in the series on HeLa cells is given as “did not confer any effects”.
In the case of `CC(=O)OCOC(=O)CN(CC(=O)OCOC(C)=O)c1ccccc1OCCOc1ccccc1N(CC(=O)OCOC(C)=O)CC(=O)OCOC(C)=O` [BAPTA-AM], the “effect of Ca2+ chelation on oAβ42-induced PIP2 decrease” value in the series with mouse cortical neurons is recorded as “blocked the action of oAβ42”. Further, in the series on mouse cortical neurons (vehicle-treated and oAβ42-treated cortical neurons), the “increase in the levels of PtdIns(4,5)P2” value was found to be 2 fold.
With `CNc1ccc2oc(C[C@H]3O[C@@]4(CC[C@H]3C)O[C@H]([C@H](C)C(=O)c3ccc[nH]3)[C@H](C)C[C@H]4C)nc2c1C(=O)O` [A23187], in the series with mouse cortical neurons, the “PIP2 levels after Ca2+ ionophore” value was “caused PIP2 levels to decrease”.
In the case of “oAβ42: crude oligomer preparation made from synthetic Aβ42 peptides”, the ATP levels entry in the series on mouse cortical neurons (200 nM) is reported as “normal”. In addition, the “effect on PA levels” value with mouse cortical neurons (200 nM, 2-week-old cultured mouse cortical neurons) was “up-regulated”. Besides, the “number of apoptotic nuclei” value in the series on mouse cortical neurons (3-day treatment, versus vehicle) is given as “comparable or slightly less”. For the same molecule, the amount of pyknosis result with mouse cortical neurons (3-day treatment, versus vehicle-treated neurons) is recorded as “undistinguishable from that occurring in vehicle-treated neurons”. Further, the “levels of PtdA” value in the series on mouse cortical neurons (crude oligomer preparation of synthetic Aβ42, after 120 min) is recorded as “approximately 130 % of control”. In addition, the “effect on LTP” value in series [1] (control (Synj1+/+) slices) is on record as “partially impaired LTP”. The GFP-PHPLCδ1 probe localization result in the series with PC12 cells is on record as “significant disappearance of the probe from the plasma membrane”.
Regarding `CC(C)=CCC[C@](C)(O)[C@H]1CC[C@]2(C)[C@@H]1[C@H](O)C[C@@H]1[C@@]3(C)CC[C@H](O[C@@H]4O[C@H](CO)[C@@H](O)[C@H](O)[C@H]4O[C@@H]4O[C@H](CO)[C@@H](O)[C@H](O)[C@H]4O)C(C)(C)[C@@H]3CC[C@]12C` [(20S)Rg3], in series [2] (PI4KIIα +/− ES-derived neurons), the “ability to reduce Aβ42” value is “no longer able to reduce Aβ42”. Moreover, the “compound-induced PIP synthesis” value in series [2] (PI4KIIα +/− clonal lines AC37 and AD14) is “substantially reduced”. Also, in the series with mouse cortical neurons (100 μM), the “steady-state levels of PIP and PIP2” value was “increased steady-state levels of both PIP and PIP2”. For the same molecule, in the series with mouse cortical neurons (cells pre-incubated with compound), the “Aβ42 oligomer-induced PIP2 reduction, pre-incubation” value is recorded as “blocked efficiently”. Moreover, the “oAβ42-induced increase in PA levels” value in the series on mouse cortical neurons (cultured neurons) is given as “inhibited the increase in PA levels”. In addition, the “Aβ42 oligomer-induced reduction in PIP2 levels” value with mouse cortical neurons (treatment / co-treatment of cultured neurons) is reported as “inhibited the reduction in PIP2 levels”. The “LTP on co-incubation with Aβ oligomers” value in series [1] (10 μM) is on record as “resulted in normal LTP”. In addition, the “spatial working memory deficits” value in the series with APP/PS1 mice was “dramatically improved spatial working memory deficits”. In addition, in the series with HeLa cells (HeLa cells), the “lipid raft-associated PS1-CTF levels” value is “significantly reduced” and the “total PS-CTF levels” value was “unchanged”. Also, the “activity of PIPK1γ” value on PIPK1γ is given as “did not confer any detectable effects”. In addition, at Aβ42, the “effect on oligomerization process of Aβ42” value was “no effects on the oligomerization process of Aβ42”. Also, the “Aβ oligomer-induced loss of plasma membrane fluorescence” value with PC12 cells (co-incubation with Aβ oligomers) was “prevented the loss of the plasma membrane fluorescence”. Further, in series [3], the Aβ42 reduction entry is “conferred additive effects on Aβ42 reduction”. For the same molecule, on PI4KIIα (50 μM with purified enzyme), the PI4KIIα activity result is reported as “enhanced PI4KIIα activity in a dose-dependent manner”. For the same molecule, the “PIP and PIP2 formation with both PI4KIIα and PIPK1γ” value at PI4KIIα (both enzymes incubated with compound) is “led to an increase of both PIP and PIP2”.
Turning to `O=c1cc(-c2cccc3c2Sc2ccccc2S3)oc(N2CCOCC2)c1` [KU-55933], the “caspase 3 cleavage” value in [4] is “did not induce caspase 3 cleavage”. Besides, the cytotoxicity entry in series [5] is listed as “found not to be cytotoxic”. Moreover, in the series on PC12 cells (30 minutes, concentration comparable to EC50 for Aβ42), the “depletion of PIP2 caused by Aβ42 oligomers” value is “rescued the depletion of PIP2”. In addition, the EC50 in series [6] stood at 3.5 µM.
Turning to `C[C@H](CCC(=O)O)C[C@H](C)C[C@H](C)C(=O)/C=C(\O)[C@H](C)C[C@H](C)C/C=C/[C@@H](C)[C@@H](O)[C@@H](C)[C@@H](O)C[C@@H]1CC[C@@](C)([C@H]2CC[C@@](C)([C@@H](C)O)O2)O1` [ionomycin], the “PIP2 levels after Ca2+ ionophore” value in the series on mouse cortical neurons is “caused PIP2 levels to decrease”. Besides, the GFP-PHPLCδ1 probe localization result in the series with PC12 cells was “mimicked”.
Take `O=C(O)CN(CCOCCOCCN(CC(=O)O)CC(=O)O)CC(=O)O` [EGTA]: the “effect of Ca2+ chelation on oAβ42-induced PIP2 decrease” value with mouse cortical neurons is “prevented oAβ42 from decreasing PIP2 levels”.
For `COc1ccc2c(c1)CC[C@@H]1[C@@H]2CC[C@]2(C)[C@@H](NCCCCCCN3C(=O)C=CC3=O)CC[C@@H]12` [U73122], in the series with PC12 cells (oAβ42 60 min, inhibitor 0.5 μM), the “PIP2 levels on oAβ42 treatment in presence of PLC inhibitor” value was “PIP2 levels remained unaffected by oAβ42”.

(Values after US8288378B2, “Phosphoinositide modulation for the treatment of neurodegenerative diseases” (The Trustees of Columbia University in the City of New York, priority 2006, dated 2012).)
